Source: patent publication US3984554A, “Animal fodder compositions containing a 4-amino-pyrimido-( 4,5,b)-quinoxaline-5,10-dioxide and method of using same” (Bayer Aktiengesellschaft, priority 1970, dated 1976)
≈ marks a conversion by molar mass, not a printed value.

Columns and labels:
[1] = test system: Klebsiella 8085; test: Minimum inhibitory concentration (MIC) in the plate test; assay type: cell-based; conditions: pH 7.4
Source text: (§1) The compounds according to the invention are effective against Gram-negative and Gram-positive bacteria. Favorable inhibition values are obtained in the plate test (Table 1) against staphylococci and streptococci which are Gram-positive bacteria, and against enterobacteria (for example Escherichia coli, Proteus and Klebsiella) which are Gram-negative bacteria.
(§2) Minimum inhibitory concentration (MIC) in the plate test:
(§3) The medium used had the following composition
(§4) Disodium phosphate 2.0 g
(§5) Adenine sulphate 0.01 g
(§6) Guanine hydrochloride 0.01 g
(§7) 1000 ml of distilled water
(§8) pH value of the medium:
(§9) Minimum inhibitory concentrations in γ/ml

[2] = test system: Pseudomonas aeruginosa Bonn; test: as above; assay type: cell-based; conditions: pH 7.4
Source text: as §1, §2, §3, §4, §5, §6, §7, §8, §9

[3] = test system: Escherichia coli C 165; test: as above; assay type: cell-based; conditions: C165, pH 7.4
Source text: as §1, §2, §3, §4, §5, §6, §7, §8, §9

[4] = test system: Escherichia coli A 261; test: as above; assay type: cell-based; conditions: A261, pH 7.4
Source text: as §1, §2, §3, §4, §5, §6, §7, §8, §9

[5] = test system: Staphylococcus aureus 133; test: as above; assay type: cell-based; conditions: pH 7.4
Source text: as §1, §2, §3, §4, §5, §6, §7, §8, §9

[6] = test system: Proteus vulgaris; test: as above; assay type: cell-based; conditions: pH 7.4
Source text: as §1, §2, §3, §4, §5, §6, §7, §8, §9

[7] = test system: Streptococcus pyogenes W; test: as above; assay type: cell-based; conditions: pH 7.4
Source text: as §1, §2, §3, §4, §5, §6, §7, §8, §9

[8] = Chick fattening experiment (fodder additive); assay type: in vivo; conditions: chicks, 20 ppm in fodder; for Ratio of total weight increase/control: control 100.0
Source text: The good effectiveness of the compounds according to the invention as fodder additives can be seen from the chick fattening experiment described below (Table 2).
The substances, ground with the fodder, were fed to one-day old chicks. The feeding lasted for seven weeks. Table 2 below gives the experimental data for the compound obtainable according to Example 2, for each of the 7 weeks.

Row | Compound | MIC [1] [µg/mL] | MIC [2] [µg/mL] | MIC [3] [µg/mL] | MIC [4] [µg/mL] | MIC [5] [µg/mL] | MIC [6] [µg/mL] | MIC [7] [µg/mL] | other results
1 | CCNc1ncnc2c1[n+]([O-])c1ccccc1[n+]2[O-] [Example 2] | 10 (≈ 38.9 µM) | 150 (≈ 583 µM) | 160 (≈ 622 µM) | 20 (≈ 77.7 µM) | 5 (≈ 19.4 µM) | 10 (≈ 38.9 µM) | 20 (≈ 77.7 µM) | Total weight increase ([8]; week 1, control 84): 92 g; Ratio of total weight increase/control ([8]; week 1): 109.5%; Ratio of total weight increase/control ([8]; week 2): 105.6%; Total weight increase ([8]; week 2, control 248): 262 g; Ratio of total weight increase/control ([8]; week 3): 108.6%; Total weight increase ([8]; week 3, control 429): 466 g; Ratio of total weight increase/control ([8]; week 4): 111.7%; Total weight increase ([8]; week 4, control 607): 678 g; Ratio of total weight increase/control ([8]; week 5): 107.7%; Total weight increase ([8]; week 5, control 922): 993 g; Ratio of total weight increase/control ([8]; week 6): 104.8%; Total weight increase ([8]; week 6, control 1250): 1310 g; Ratio of total weight increase/control ([8]; week 7): 106.4%; Total weight increase ([8]; week 7, control 1479): 1574 g
2 | CCCNc1ncnc2c1[n+]([O-])c1ccccc1[n+]2[O-] [Example 3] | 100 (≈ 369 µM) | 150 (≈ 553 µM) | 100 (≈ 369 µM) | 100 (≈ 369 µM) | 10 (≈ 36.9 µM) | 100 (≈ 369 µM) | 20 (≈ 73.7 µM) | –
3 | CCCCNc1ncnc2c1[n+]([O-])c1ccccc1[n+]2[O-] [Example 5] | – | – | – | – | 10 (≈ 35 µM) | – | 20 (≈ 70.1 µM) | –
4 | [O-][n+]1c2ccccc2[n+]([O-])c2c(NCCO)ncnc21 [Example 7] | 150 (≈ 549 µM) | 100 (≈ 366 µM) | 100 (≈ 366 µM) | 100 (≈ 366 µM) | 100 (≈ 366 µM) | 100 (≈ 366 µM) | 10 (≈ 36.6 µM) | –

Now from value to molecule, other results behind:

Row | MIC [1] [µg/mL] | MIC [2] [µg/mL] | MIC [3] [µg/mL] | MIC [4] [µg/mL] | MIC [5] [µg/mL] | MIC [6] [µg/mL] | MIC [7] [µg/mL] | Compound | other results
5 | 5 (≈ 20.6 µM) | 50 (≈ 206 µM) | 5 (≈ 20.6 µM) | 5 (≈ 20.6 µM) | 2.5 (≈ 10.3 µM) | 5 (≈ 20.6 µM) | 20 (≈ 82.2 µM) | CNc1ncnc2c1[n+]([O-])c1ccccc1[n+]2[O-] [Example 1, 4-methylamino-pyrimido-(4,5,b)-quinoxaline-5,10-dioxide] | –
6 | – | 150 (≈ 553 µM) | 100 (≈ 369 µM) | 100 (≈ 369 µM) | 10 (≈ 36.9 µM) | 100 (≈ 369 µM) | 20 (≈ 73.7 µM) | CC(C)Nc1ncnc2c1[n+]([O-])c1ccccc1[n+]2[O-] [Example 4] | –
7 | – | – | – | – | 10 (≈ 32.1 µM) | – | – | [O-][n+]1c2ccccc2[n+]([O-])c2c(NC3CCCCC3)ncnc21 [Example 6] | –
